The target in the test is RIPK1 (recombinant GST-RIPK1 kinase domain, residues 1-327) (Homo sapiens (Human), UniProt Q13546). As to the kind of experiment: RIPK1-ADP-Glo Enzymatic Assay. The test is classed as biochemical. Particulars: ADP-Glo; 25 nM GST-RIPK1, 300 μM ATP; assay lower limit ~25 nM; read-out: RIPK1 V0 Ec50. In a few lines:
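Enzyme from baculovirus-infected Sf21 cells, 25 nM final, was pre-incubated 30 min at ambient temperature with compound (ten-point, 1:3 dilution from 100000 nM, 1% DMSO), then reacted 150 min with 300 μM ATP and 3 μM dephosphorylated MBP. ADP was read by luminescence; EC50 from four-parameter fit.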
(In general: ADP-Glo turns the ADP formed in a reaction into a luminescent signal.)

Structures can show the parent of a compound that is named as a salt.

Chain of RIPK1 (recombinant GST-RIPK1 kinase domain, residues 1-327) (Q13546 1-327): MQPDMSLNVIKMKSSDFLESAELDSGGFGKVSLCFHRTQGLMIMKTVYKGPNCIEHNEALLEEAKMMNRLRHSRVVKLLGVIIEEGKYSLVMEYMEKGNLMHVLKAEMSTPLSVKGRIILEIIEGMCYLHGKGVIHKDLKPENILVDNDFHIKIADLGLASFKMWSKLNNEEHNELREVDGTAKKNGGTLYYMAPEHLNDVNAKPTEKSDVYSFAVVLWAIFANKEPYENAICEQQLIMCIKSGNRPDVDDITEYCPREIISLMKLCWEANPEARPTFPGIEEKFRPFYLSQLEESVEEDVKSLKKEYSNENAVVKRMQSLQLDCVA

As to `N#Cc1cnc(N2CCC3(CC2)O[C@@H]2CC[C@@H](c4ccccc4F)N2C3=O)n2ncnc12` [Example 4.242, 5-[(5′S,7a′R)-5′-(2-fluorophenyl)-3′-oxotetrahydro-1H,3′H-spiro[piperidine-4,2′-pyrrolo[2,1-b] [1,3]oxazol]-1-yl] [1,2,4]triazolo[1,5-c] pyrimidine-8-carbonitrile], the EC50 was < 0.025 µM.

As to `O=C(c1ccn(C(F)F)n1)N1CCC2(CC1)O[C@@H]1CC[C@@H](c3cc(F)cc(F)c3)N1C2=O` [Example 5.41], the EC50 was determined as 0.129 µM. In the case of `N#Cc1cccc(C(=O)N2CCC3(CC2)O[C@@H]2CC[C@@H](c4cccc(F)c4)N2C3=O)c1` [Example 6.115, 3-[(5′S,7a′R)-5′-(3-fluorophenyl)-3′-oxo-tetrahydro-1H,3′H-spiro[piperidine-4,2′-pyrrolo[2,1-b][1,3]-oxazole]-1-carbonyl] benzonitrile], the EC50 was < 0.025 µM. As to `O=C1N2[C@@H](CC[C@H]2c2cc(F)cc(F)c2)OC12CCN(c1ccnc3ncnn13)CC2` [Example 4.83, (5′S,7a′R)-1-([1,2,4]triazolo[1,5-a]pyrimidin-7-yl)-5′-(3,5-difluorophenyl)tetrahydro-3′H-spiro[piperidine-4,2′-pyrrolo[2,1-b]oxazol]-3′-one, TFA salt], the 50% effective concentration (EC50) turned out to be 0.363 µM. Consider `CC(=O)c1cnc(N2CCC3(CC2)O[C@@H]2CC[C@@H](c4ccccc4)N2C3=O)cc1Cl` [Example 4.186, (5′S,7a′R)-1-(5-acetyl-4-chloropyridin-2-yl)-5′-phenyltetrahydro-3′H-spiro[piperidine-4,2′-pyrrolo[2,1-b] [1,3]oxazol]-3′-one], for which the EC50 was < 0.025 µM.

On to `O=C1N2[C@@H](CC[C@H]2c2ccccc2)OC12CCN(c1ccnc3c(F)cnn13)CC2F` (single isomer, unassigned) [Example 4.91, (3[R or S],4[S or R], 5′S,7a′R)-3-fluoro-1-(3-fluoropyrazolo[1,5-a]pyrimidin-7-yl)-5′-phenyltetrahydro-3′H-spiro[piperidine-4,2′-pyrrolo[2,1-b]oxazol]-3′-one, TFA salt], for which the EC50 is < 0.025 µM.

On to `O=C1N2[C@@H](CC[C@H]2c2ccccc2F)OC12CCN(c1ccnc3c(F)cnn13)CC2` [Example 4.102, (5′S,7a′R)-5′-(2-fluorophenyl)-1-(3-fluoropyrazolo[1,5-a]pyrimidin-7-yl)tetrahydro-3′H-spiro[piperidine-4,2′-pyrrolo[2,1-b]oxazol]-3′-one], for which the EC50 was < 0.025 µM. As to `COc1cc(N2CCC3(CC2)O[C@@H]2CC[C@@H](c4cc(F)cc(F)c4)N2C3=O)ncn1` [Example 4.11, (5′S,7a′R)-5′-(3,5-difluorophenyl)-1-(6-methoxypyrimidin-4-yl)tetrahydro-3′H-spiro[piperidine-4,2′-pyrrolo[2,1-b] [1,3]oxazol]-3′-one], the concentration giving a half-maximal response (EC50) is < 0.025 µM. Consider `N#Cc1cnc(N2CC3(C2)O[C@@H]2CC[C@@H](c4ccccc4F)N2C3=O)nc1` [Example 4.119, 2-((5′S,7a′R)-5′-(2-fluorophenyl)-3′-oxotetrahydro-3′H-spiro[azetidine-3,2′-pyrrolo[2,1-b]oxazol]-1-yl)pyrimidine-5-carbonitrile], for which the EC50 was found to be 0.537 µM.

Take `N#Cc1ccc(N2CCC3(CC2)O[C@@H]2CC[C@@H](c4ccccc4F)N2C3=O)n2nccc12` [Example 4.156, 7-[(5′S,7a′R)-5′-(2-fluorophenyl)-3′-oxotetrahydro-1H,3′H-spiro[piperidine-4,2′-pyrrolo[2,1-b] [1,3]oxazol]-1-yl]pyrazolo[1,5-a] pyridine-4-carbonitrile]: the EC50 was < 0.025 µM.

On to `CN(C)c1cccc(C(=O)N2CCC3(CC2)O[C@@H]2CC[C@@H](c4ccccc4)N2C3=O)c1` [Example 6.144, (5′S,7a′R)-1-[3-(dimethylamino)ben-zene-1-carbonyl]-5′-phenyltetrahydro-3′H-spiro[piperidine-4,2′-pyrrolo[2,1-b][1,3]oxazol]-3'-one], for which the EC50 is < 0.025 µM.

On to `CC(C)Oc1cccc(C(=O)N2CCC3(CC2)O[C@@H]2CC[C@@H](c4cc(F)cc(F)c4)N2C3=O)n1` [Example 6.90, (5′S,7a′R)-5′-(3,5-difluorophenyl)-1-{6-[(propan-2-yl)oxy]-pyridine-2-carbonyl} tetrahydro-3′H-spiro [piperidine-4,2′-pyrrolo[2,1-b][1,3]-oxazol]-3′-one], for which the EC50 turned out to be 0.0361 µM. As for `O=C(c1cc(F)ccc1F)N1CCC2(O[C@@H]3CC[C@@H](c4ccccc4)N3C2=O)C(F)C1` (stereo partly drawn) [Example 6.112], the figure is < 0.025 µM; as for `N#Cc1cnc(N2CCC3(CC2)O[C@@H]2CC[C@@H](c4ccccc4)N2C3=O)n2ncnc12` [Example 4.241, 5-[(5′S,7a′R)-3′-oxo-5′-phenyltetrahydro-1H,3′H-spiro[piperidine-4,2′-pyrrolo[2,1-b] [1,3]oxazol]-1-yl][1,2,4]triazolo[1,5-c] pyrimidine-8-carbonitrile], < 0.025 µM. Consider `Cc1cc(N2CCC3(CC2)O[C@@H]2CC[C@@H](c4ccccc4)N2C3=O)cs1` [Example 11.10, (5′S,7a′R)-1-(5-methylthiophen-3-yl)-5′-phenyltetrahydro-3′H-spiro[piperidine-4,2′-pyrrolo[2,1-b][1,3]oxazol]-3′-one], for which the EC50 came to 0.253 µM. Turning to `O=C(c1ccccc1)N1CCC2(CC1)C[C@@H]1OC[C@@H](c3ccccc3)N1C2=O` [Example 7.3, (3′R,7a′S)-1-(benzenecarbonyl)-3′-phenyltetrahydro-5′H-spiro[piperidine-4,6′-pyrrolo[2,1-b][1,3]oxazol]-5′-one], the EC50 was 0.102 µM.

Regarding `N#Cc1ccc(N2CCC3(CC2)O[C@@H]2CC[C@@H](c4cccc(F)c4)N2C3=O)n2ncnc12` [Example 4.259, 5-[(5′S,7a′R)-5′-(3-fluorophenyl)-3′-oxotetrahydro-1H,3′H-spiro[piperidine-4,2′-pyrrolo[2,1-b] [1,3]oxazol]-1-yl][1,2,4]triazolo[1,5-a] pyridine-8-carbonitrile], the 50% effective concentration (EC50) is < 0.025 µM. As for `COc1ccc(N2CCC3(CC2)O[C@@H]2CC[C@@H](c4cc(F)cc(F)c4)N2C3=O)n2ncnc12` [Example 19.3, (5′S,7a′R)-5′-(3,5-difluorophenyl)-1-(8-methoxy-[1,2,4]triazolo[1,5-a]pyridin-5-yl)tetrahydro-3′H-spiro[piperidine-4,2′ pyrrolo[2,1-b]oxazol]-3′-one, TFA salt], the EC50 is < 0.025 µM. For the compound `Cc1nc(N2CCC3(CC2)O[C@@H]2CC[C@@H](c4ccccc4)N2C3=O)ncc1-c1ncn(C)n1` [Example 21.4, (5′S,7a′R)-1-[4-methyl-5-(1-methyl-1H-1,2,4-triazol-3-yl)pyrimidin-2-yl]-5′-phenyltetrahydro-3′H-spiro[piperidine-4,2′-pyrrolo[2,1-b][1,3]oxazol]-3′-one], the EC50 amounted to 0.117 µM. As for `O=C(c1cnc2cccnn12)N1CCC2(CC1)O[C@@H]1CC[C@@H](c3cc(F)cc(F)c3)N1C2=O` [Example 6.16, (5′S,7a′R)-5′-(3,5-difluorophenyl)-1-(imidazo[1,2-b]-pyridazine-3-carbon-yl)tetrahydro-3′H-spiro[piperidine-4,2′-pyrrolo[2,1-b][1,3]oxazol]-3′-one], the figure is 0.276 µM; as for `N#Cc1cc(N2CCC3(CC2)O[C@@H]2CC[C@@H](c4ccccc4F)N2C3=O)ncn1` [Example 4.104, 6-((5′S,7a′R)-5′-(2-fluorophenyl)-3′-oxotetrahydro-3′H-spiro[piperidine-4,2′-pyrrolo[2,1-b]oxazol]-1-yl)pyrimidine-4-carbonitrile], 0.0339 µM.

In the case of `O=C1N2[C@@H](CC[C@H]2c2ccccc2)OC12CN(c1ncnc3ccnn13)C2` [Example 4.137, (5′S,7a′R)-5′-phenyl-1-(pyrazolo[1,5-a] [1,3,5]triazin-4-yl)tetrahydro-3′H-spiro[azetidine-3,2′-pyrrolo[2,1-b] [1,3]oxazol]-3′-one], the concentration for a half-maximal effect (EC50) amounted to 0.235 µM.

`Cc1ncc(C)c(N2CCC3(CC2)O[C@@H]2CC[C@@H](c4ccccc4)N2C3=O)n1` [Example 11.34, (5′S,7a′R)-1-(2,5-dimethylpyrimidin-4-yl)-5′-phenyltetrahydro-3′H-spiro[piperidine-4,2′-pyrrolo[2,1-b][1,3]oxazol]-3′-one]: the EC50 is 0.601 µM. As for `O=C1N2[C@@H](CC[C@H]2c2cc(F)cc(F)c2)OC12CC1CCC(C2)N1c1ccnc2c(F)cnn12` (stereo partly drawn) [Example 4.254, (5′S,7a′R)-5′-(3,5-difluorophenyl)-8-(3-fluoropyrazolo[1,5-a]pyrimidin-7-yl)tetrahydro-3′H-spiro[8-azabicyclo[3.2.1]octane-3,2′-pyrrolo[2,1-b] [1,3]oxazol]-3′-one], the figure is 0.126 µM; as for `N#Cc1cc(N2CCC3(CC2)O[C@@H]2CC[C@@H](c4cccc(F)c4)N2C3=O)ncn1` [Example 4.122, 6-[(5′S,7a′R)-5′-(3-fluorophenyl)-3′-oxotetrahydro-1H,3′H-spiro[piperidine-4,2′-pyrrolo[2,1-b] [1,3]oxazol]-1-yl]pyrimidine-4-carbonitrile], 0.0356 µM; as for `N#Cc1ccc(N2CCC3(CC2)O[C@@H]2CC[C@@H](c4ccccc4)N2C3=O)n2ncc(C#N)c12` [Example 4.178, 7-[(5′S,7a′R)-3′-oxo-5′-phenyltetrahydro-1H,3′H-spiro[piperidine-4,2′-pyrrolo[2,1-b] [1,3]oxazol]-1-yl]pyrazolo[1,5-a] pyridine-3,4-dicarbonitrile], < 0.025 µM. Consider `O=C1N2[C@H](OC13CCN(c1ccnc4ccnn14)CC3)[C@@H](O)C[C@H]2c1ccccc1` [Example 4.251, (5′S,7′S,7a′R)-7′-hydroxy-5′-phenyl-1-(pyrazolo [1,5-a]pyrimidin-7-yl)tetrahydro-3′H-spiro[piperidine-4,2′-pyrrolo[2,1-b] [1,3]oxazol]-3′-one], for which the EC50 is < 0.025 µM.

By EC50 is commonly meant the concentration giving half of the maximal effect.

The values above are taken from patent US12180226B2, “Spirotricycle RIPK1 inhibitors and methods of uses thereof” (Merck Sharp & Dohme LLC, priority 2021, dated 2024).
